Experiments:
[1] = compound: CC1CC(=O)N(C2=CN=C(N=C2N1C3CCCC3)NC4=C(C=C(C=C4)C(=O)NC5CCN(CC5)C)OC)C [NPK76-II-72-1] + CC1(C)CCC(c2ccc(Cl)cc2)=C(CN2CCN(c3ccc(C(=O)NS(=O)(=O)c4ccc(N[C@H](CCN5CCOCC5)CSc5ccccc5)c(S(=O)(=O)C(F)(F)F)c4)cc3)CC2)C1 [Navitoclax] (partner 0.5 µM); experiment: relative viability (nuclei count vs DMSO), 5 days (fraction); higher = more cells survive
Summary of the method: (§1)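 Medians of duplicate plates are given as relative viability. That measure is the nuclei count in treated wells divided by the count in vehicle wells. Counts were taken on 4× images of lung cancer cell lines in 1536-well plates, 5 days after pin-tool dosing the day after seeding with one drug alone or a fixed anchor-drug dose plus five library-drug doses (not always all listed) in √10 steps.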

BI-2536 + Foretinib = compound: CC[C@@H]1C(=O)N(C)c2cnc(Nc3ccc(C(=O)NC4CCN(C)CC4)cc3OC)nc2N1C1CCCC1 [BI-2536] + COc1cc2c(Oc3ccc(NC(=O)C4(C(=O)Nc5ccc(F)cc5)CC4)cc3F)ccnc2cc1OCCCN1CCOCC1 [Foretinib] (partner 0.25 µM); experiment: as above
Summary of the method: as §1

Cell Line | relative viability ([1]; first compound 0.01 µM) | relative viability ([1]; first compound 0.03162 µM) | relative viability ([1]; first compound 0.1 µM) | relative viability ([1]; first compound 0.3162 µM) | relative viability ([1]; first compound 1 µM) | relative viability (BI-2536 + Foretinib; first compound 0.01 µM) | relative viability (BI-2536 + Foretinib; first compound 0.03162 µM) | relative viability (BI-2536 + Foretinib; first compound 0.1 µM) | relative viability (BI-2536 + Foretinib; first compound 0.3162 µM) | relative viability (BI-2536 + Foretinib; first compound 1 µM)
NCI-H2228 | 0.509 | 1.06 | 1.14 | 0.794 | 0.932 | 1.05 | 0.583 | 0.217 | 0.15 | 0.156
PC-14 | 1 | 1.06 | 1.03 | 0.948 | 1.07 | 0.961 | 0.93 | 0.895 | 0.0827 | 0.0753
NCI-H1437 | 1.17 | 1.11 | 0.967 | 0.978 | 1.13 | 1.25 | 1.18 | 0.852 | 0.198 | 0.179
NCI-H460 | 1.17 | 1.45 | 1.19 | 1.18 | 1.23 | 1.11 | 1.06 | 0.147 | 0.0166 | 0.02
NCI-H1666 | 0.917 | 0.858 | 0.961 | 0.722 | 1.06 | 1.02 | 0.981 | 0.826 | 0.447 | 0.421
NCI-H1651 | 0.915 | 1.04 | 1.11 | 0.953 | 1.1 | 0.628 | 0.776 | 0.536 | 0.0828 | 0.0854
NCI-H1755 | 0.942 | 1.01 | 0.953 | 0.989 | 1.02 | 0.949 | 0.819 | 0.618 | 0.27 | 0.292
NCI-H661 |  |  |  |  |  | 1.13 | 0.889 | 0.388 | 0.296 | 0.309
HARA | 1.12 | 1.14 | 1.13 | 1.08 | 1.15 | 0.97 | 1.07 | 0.746 | 0.0569 | 0.0893
NCI-H596 | 0.862 | 1.01 | 0.828 | 0.965 | 1.04 | 0.642 | 0.955 | 0.803 | 0.292 | 0.205
NCI-H1563 |  |  |  |  |  | 0.905 | 1.06 | 0.923 | 0.67 | 0.552
NCI-H23 | 0.774 | 1.08 |  | 0.675 | 0.784 | 0.954 | 0.813 | 0.229 | 0.153 | 0.162
A549 | 1.17 | 1.29 | 1.22 | 1.12 | 1.15 | 0.962 | 0.901 | 0.427 | 0.0288 | 0.0231
LCLC-97TM1 |  | 0.392 | 0.52 | 0.439 | 0.488 | 0.958 | 0.91 | 0.637 | 0.149 | 0.179
EPLC-272H | 1.06 | 0.97 | 1.12 | 1.09 | 1.35 | 0.715 | 0.0998 | 0.0735 | 0.0644 | 0.0639
NCI-H1915 | 0.749 | 0.795 | 0.786 | 0.736 | 0.826 | 1.13 | 0.975 | 0.618 | 0.16 | 0.143
NCI-H1623 |  |  |  |  |  | 0.912 | 0.864 | 0.83 | 0.345 | 0.321
SW 900 |  |  |  |  |  | 0.775 | 0.8 | 0.983 | 0.2 | 0.138
NCI-H358 |  |  |  |  |  | 0.623 | 0.598 | 0.08 | 0.101 | 0.0984
